Tests used:
[1] = test system: TRZSS: wheat, including spring and winter (Triticum aestivum); test: Post-emergent Test III, herbicidal activity in wheat and barley; type: in vivo
Description: (§1) Post-emergent Test III. Seeds of the desired test plant species were planted in Sun Gro MetroMix® 306 planting mixture, which typically has a pH of 6.0 to 6.8 and an organic matter content of about 30 percent, in plastic pots with a surface area of 103.2 square centimeters (cm^2). When required to ensure good germination and healthy plants, a fungicide treatment and/or other chemical or physical treatment was applied. The plants were grown for 7-36 days (d) in a greenhouse with an approximate 14 hour (h) photoperiod which was maintained at about 18° C. during the day and 17° C. during the night. Nutrients and water were added on a regular basis and supplemental lighting was provided with overhead metal halide 1000-Watt lamps as necessary. The plants were employed for testing when they reached the second or third true leaf stage.
(§2) A weighed amount, determined by the highest rate to be tested, of each test compound was placed in a 25 mL glass vial and was dissolved in 4 mL of a 97:3 v/v mixture of acetone and DMSO to obtain concentrated stock solutions. […] The concentrated stock solutions obtained were diluted with 20 mL of an aqueous mixture containing acetone, water, isopropyl alcohol, DMSO, Agri-Dex crop oil concentrate, and X-77 surfactant in a 48:39:10:1.5:1.5:0.02 v/v ratio to obtain spray solutions containing the highest application rates. Additional application rates were obtained by serial dilution of 12 mL of the high rate solution into a solution containing 2 mL of 97:3 v/v mixture of acetone and DMSO and 10 mL of an aqueous mixture containing acetone, water, isopropyl alcohol, DMSO, Agri-Dex crop oil concentrate, and X-77 surfactant in a 48:39:10:1.5:1.5:0.02 v/v ratio to obtain ½×, ¼×, ⅛× and 1/16× rates of the high rate. Compound requirements are based upon a 12 mL application volume at a rate of 187 liters per hectare (L/ha). Formulated compounds were applied to the plant material with an overhead Mandel track sprayer equipped with 8002E nozzles calibrated to deliver 187 L/ha over an application area of 0.503 square meters at a spray height of 18 inches (43 cm) above the average plant canopy height. Control plants were sprayed in the same manner with the solvent blank.
(§3) The treated plants and control plants were placed in a greenhouse as described above and watered by subirrigation to prevent wash-off of the test compounds. After 21 d, the condition of the test plants as compared with that of the untreated plants was determined visually and scored on a scale of 0 to 100 percent where 0 corresponds to no injury and 100 corresponds to complete kill.
(§4) By applying the well-accepted probit analysis as described by J. Berkson in Journal of the American Statistical Society, 48, 565 (1953) and by D. Finney in “Probit Analysis” Cambridge University Press (1952), herbicidal injury of a specific compound at various rates can be used to calculate GR20, GR50, GR80 and GR90 values, which are defined as growth reduction factors that correspond to the effective dose of herbicide required to provide plant growth reduction (GR) of 20 percent, 50 percent, 80 percent and 90 percent, respectively. Probit analysis was applied to data collected from multiple dose rates of individual compounds utilizing the procedures explained in the following examples. The analysis of those dose rates is captured in the following tables.

[2] = test system: HORSS: barley, including spring and winter (Hordeum vulgare); test: as above; type: in vivo
Description: as §1, §2, §3, §4

[3] = test system: KCHSC: kochia (Kochia scoparia); test: as above; type: in vivo; settings: for pest or weed control at 35 g/ha / pest or weed control at 70 g/ha / pest or weed control at 140 g/ha: Bassia scoparia, post-emergence, 504 h, read-out: Visual Growth Reduction (%) 21 Days After Application KCHSC; for pest or weed control at 35 g/ha: 35 g ai/ha; for pest or weed control at 70 g/ha: 70 g ai/ha; for pest or weed control at 140 g/ha: 140 g ai/ha; for GR50 KCHSC / GR80 KCHSC: probit analysis, 21 days after application; for GR50 KCHSC: dose for growth reduction of 50 percent; for GR80 KCHSC: dose for growth reduction of 80 percent
Description: as §1, §2, §3, §4

[4] = as above; type: in vivo, Lolium multiflorum, Lolium rigidum; settings: Lolium multiflorum, post-emergence, 504 h, read-out: Visual Growth Reduction (%) 21 Days After Application LOLSS; for pest or weed control at 35 g/ha: 35 g ai/ha; for pest or weed control at 70 g/ha: 70 g ai/ha; for pest or weed control at 140 g/ha: 140 g ai/ha
Description: as §1, §2, §3, §4

[5] = test system: MATSS: scented mayweed (Matricaria chamomilla), pineappleweed (Matricaria matricarioides); test: as above; type: in vivo; settings: for pest or weed control at 35 g/ha / pest or weed control at 70 g/ha / pest or weed control at 140 g/ha: Matricaria chamomilla, post-emergence, 504 h, read-out: Visual Growth Reduction (%) 21 Days After Application MATSS; for pest or weed control at 35 g/ha: 35 g ai/ha; for pest or weed control at 70 g/ha: 70 g ai/ha; for pest or weed control at 140 g/ha: 140 g ai/ha; for GR50 MATSS / GR80 MATSS: probit analysis, 21 days after application; for GR50 MATSS: dose for growth reduction of 50 percent; for GR80 MATSS: dose for growth reduction of 80 percent
Description: as §1, §2, §3, §4

[6] = test system: APESV: bentgrass (Apera spica-venti); test: as above; type: in vivo; settings: for pest or weed control at 35 g/ha / pest or weed control at 70 g/ha / pest or weed control at 140 g/ha: Apera spica-venti, post-emergence, 504 h, read-out: Visual Growth Reduction (%) 21 Days After Application APESV; for pest or weed control at 35 g/ha: 35 g ai/ha; for pest or weed control at 70 g/ha: 70 g ai/ha; for pest or weed control at 140 g/ha: 140 g ai/ha; for GR50 APESV / GR80 APESV: probit analysis, 21 days after application; for GR50 APESV: dose for growth reduction of 50 percent; for GR80 APESV: dose for growth reduction of 80 percent
Description: as §1, §2, §3, §4

[7] = test system: SETVI: green foxtail (Setaria viridis); test: as above; type: in vivo
Description: as §1, §2, §3, §4

[8] = test system: LOLSS: ryegrass including, Italian ryegrass (Lolium multiflorum), rigid ryegrass (Lolium rigidum), annual ryegrass (Lolium multiflorum subsp. Gaudini); test: as above; type: in vivo; settings: probit analysis, 21 days after application; for GR50 LOLSS: dose for growth reduction of 50 percent; for GR80 LOLSS: dose for growth reduction of 80 percent
Description: as §1, §2, §3, §4

[9] = probit analysis, dose for growth reduction of 20 percent, 21 days after application, crop

| Structure (SMILES) | pest or weed control at 35 g/ha [3] [%] | pest or weed control at 70 g/ha [3] [%] | pest or weed control at 140 g/ha [3] [%] | GR50 KCHSC [3] [g ai/ha] | GR80 KCHSC [3] [g ai/ha] | pest or weed control at 35 g/ha [4] [%] | pest or weed control at 70 g/ha [4] [%] | pest or weed control at 140 g/ha [4] [%] | pest or weed control at 35 g/ha [5] [%] | pest or weed control at 70 g/ha [5] [%] | pest or weed control at 140 g/ha [5] [%] | GR50 MATSS [5] [g ai/ha] | GR80 MATSS [5] [g ai/ha] | pest or weed control at 35 g/ha [6] [%] | pest or weed control at 70 g/ha [6] [%] | pest or weed control at 140 g/ha [6] [%] | GR50 APESV [6] [g ai/ha] | GR80 APESV [6] [g ai/ha] | GR50 LOLSS [8] [g ai/ha] | GR80 LOLSS [8] [g ai/ha] | further results |
| --- | --- | --- | --- | --- | --- | --- | --- | --- | --- | --- | --- | --- | --- | --- | --- | --- | --- | --- | --- | --- | --- |
| COC(=O)c1nc(-c2ccc(OC(F)F)cc2)c(F)c(N)c1Cl [Compound 85] | 0 to 29 | 0 to 29 | 0 to 29 | >140 | >140 | 0 to 29 | 0 to 29 | 0 to 29 | 0 to 29 | 0 to 29 | 0 to 29 | 88 | >140 | 0 to 29 | 0 to 29 | 0 to 29 | >140 | >140 |  |  | pest or weed control at 35 g/ha ([1]; Triticum aestivum, post-emergence, 504 h, 35 g ai/ha, read-out: Visual Growth Reduction (%) 21 Days After Application TRZSS): 60 to 74%; pest or weed control at 70 g/ha ([1]; Triticum aestivum, post-emergence, 504 h, 70 g ai/ha, read-out: Visual Growth Reduction (%) 21 Days After Application TRZSS): 60 to 74%; pest or weed control at 140 g/ha ([1]; Triticum aestivum, post-emergence, 504 h, 140 g ai/ha, read-out: Visual Growth Reduction (%) 21 Days After Application TRZSS): 60 to 74%; GR20 TRZSS [1, 9]: 1 g ai/ha; pest or weed control at 35 g/ha ([2]; Hordeum vulgare, post-emergence, 504 h, 35 g ai/ha, read-out: Visual Growth Reduction (%) 21 Days After Application HORSS): 0 to 29%; pest or weed control at 70 g/ha ([2]; Hordeum vulgare, post-emergence, 504 h, 70 g ai/ha, read-out: Visual Growth Reduction (%) 21 Days After Application HORSS): 30 to 44%; pest or weed control at 140 g/ha ([2]; Hordeum vulgare, post-emergence, 504 h, 140 g ai/ha, read-out: Visual Growth Reduction (%) 21 Days After Application HORSS): 60 to 74%; GR20 HORSS [2, 9]: 33 g ai/ha; pest or weed control at 35 g/ha ([7]; Setaria viridis, post-emergence, 504 h, 35 g ai/ha, read-out: Visual Growth Reduction (%) 21 Days After Application SETVI): 0 to 29%; pest or weed control at 70 g/ha ([7]; Setaria viridis, post-emergence, 504 h, 70 g ai/ha, read-out: Visual Growth Reduction (%) 21 Days After Application SETVI): 0 to 29%; pest or weed control at 140 g/ha ([7]; Setaria viridis, post-emergence, 504 h, 140 g ai/ha, read-out: Visual Growth Reduction (%) 21 Days After Application SETVI): 0 to 29%; GR50 SETVI ([7]; probit analysis, dose for growth reduction of 50 percent, 21 days after application): >140 g ai/ha; GR80 SETVI ([7]; probit analysis, dose for growth reduction of 80 percent, 21 days after application): >140 g ai/ha |
| COC(=O)c1nc(-c2ccc(Br)c(F)c2F)c(F)c(N)c1Cl [Compound 109, methyl 4-amino-6-(4-bromo-2,3-difluorophenyl)-3-chloro-5-fluoropicolinate] | 85 to 94 | 85 to 94 |  | 3 | 19 | 45 to 59 | 45 to 59 |  | 30 to 44 | 45 to 59 |  | 72 | >140 | 85 to 94 | 85 to 94 |  | 1 | 6 | 34 | >140 |  |
| Nc1c(F)c(-c2ccc(Br)c(F)c2F)nc(C(=O)O)c1Cl [Compound 147] | 85 to 94 | 95 to 100 | 85 to 94 | 4 | 19 | 30 to 44 | 45 to 59 | 60 to 74 | 95 to 100 | 95 to 100 | 95 to 100 | 6 | 14 | 85 to 94 | 85 to 94 | 85 to 94 | 5 | 16 | 71 | >140 |  |
| COC(=O)c1nc(-c2ccc(C(F)F)cc2)c(F)c(N)c1Cl [Compound 209] | 60 to 74 | 85 to 94 |  | 12 | 42 | 0 to 29 | 30 to 44 |  | 0 to 29 | 0 to 29 |  | >140 | >140 | 0 to 29 | 0 to 29 |  | >140 | >140 | 93 | >140 |  |
